Data published in US20140088187A1, “ANDROGEN RECEPTOR INHIBITORS AND METHODS OF USE THEREOF” (BETH ISRAEL DEACONESS MEDICAL CENTER, priority 2010, published 2014).
Entries after “also recorded” stand apart in the source; their conditions may differ.

Assays:
Format in all cases: cell-based
wildtype AR = target: T1, wildtype AR (Homo sapiens, UniProt P10275); experiment: AR-responsive firefly luciferase reporter assay in COS7 cells transfected with AR (DHT-stimulated AR activity); conditions: relative to initial chemotype A compounds; data not shown
T1 construct: The AR WT construct expresses full-length human AR under cmv promoter control; expressed in transfected cells; host or cells: COS7
T1 sequence (P10275 1-920): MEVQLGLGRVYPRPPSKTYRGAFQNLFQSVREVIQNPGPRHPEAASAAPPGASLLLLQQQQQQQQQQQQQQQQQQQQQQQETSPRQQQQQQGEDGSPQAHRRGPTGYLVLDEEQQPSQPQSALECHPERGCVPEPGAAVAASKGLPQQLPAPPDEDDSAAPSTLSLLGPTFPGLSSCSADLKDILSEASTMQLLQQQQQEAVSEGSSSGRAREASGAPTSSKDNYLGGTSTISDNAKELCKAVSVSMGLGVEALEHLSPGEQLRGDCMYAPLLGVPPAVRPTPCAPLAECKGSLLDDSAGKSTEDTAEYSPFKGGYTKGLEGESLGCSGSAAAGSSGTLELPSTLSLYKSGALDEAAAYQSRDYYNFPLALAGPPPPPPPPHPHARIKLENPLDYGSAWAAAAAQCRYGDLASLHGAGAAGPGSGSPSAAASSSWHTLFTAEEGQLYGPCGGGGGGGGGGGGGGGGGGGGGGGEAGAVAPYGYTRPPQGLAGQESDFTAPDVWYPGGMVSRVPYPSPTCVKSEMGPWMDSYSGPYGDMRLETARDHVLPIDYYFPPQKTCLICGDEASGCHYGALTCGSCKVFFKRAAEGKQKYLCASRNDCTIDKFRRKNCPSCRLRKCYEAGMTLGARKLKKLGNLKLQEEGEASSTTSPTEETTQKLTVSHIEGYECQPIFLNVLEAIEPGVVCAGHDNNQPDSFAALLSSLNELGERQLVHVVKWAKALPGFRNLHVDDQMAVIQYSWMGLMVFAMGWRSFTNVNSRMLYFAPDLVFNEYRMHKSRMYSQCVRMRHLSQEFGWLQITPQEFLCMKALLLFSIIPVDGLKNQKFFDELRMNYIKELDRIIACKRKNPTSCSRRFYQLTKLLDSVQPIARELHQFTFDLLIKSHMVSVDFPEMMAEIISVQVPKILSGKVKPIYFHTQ
Description: FIG. 13. Antagonist activity of generation 4 compounds at 25 micromolar. […] Reporter firefly luciferase is corrected for control Renilla activity.
FIG. 14. Antagonist activity of generation 4 compounds at 1-10 micromolar. […] Reporter firefly luciferase is corrected for control Renilla activity. […]
The AR-responsive firefly luciferase reporter consists of 4 tandem repeats of the consensus steroid response element cloned upstream of the pGL3-Basic Luciferase vector (Promega). The AR WT construct expresses full-length human AR under cmv promoter control.
Luciferase activity was determined using the Dual-Luciferase Reporter Assay System (Promega E1910).

AR in VCaP cells = target: T2, AR in VCaP cells (Homo sapiens, UniProt P10275); experiment: Nuclear AR, total AR protein and PSA expression in VCaP cells in steroid depleted medium
T2 construct: endogenous in cells; host or cells: VCaP
T2 sequence (P10275 1-920): T1 sequence (P10275 1-920)
Description: VCaP cells, derived from a CRPC vertebral metastasis, express substantial levels of AR and AR regulated genes such as PSA even when cultured in steroid depleted medium. […] In additional studies focused on chemotype A compounds, we used immunofluorescence to assess AR nuclear localization. […] In contrast, and consistent with the biochemical fractionation studies noted above, basal nuclear AR was decreased by A61.
We used the NE-PER Nuclear and Cytoplasmic Extraction Reagents (Pierce 78833).

[1] = target: T3, wild-type AR in PC3-AR cells (Homo sapiens, UniProt P10275); experiment: AR protein levels and degradation (cycloheximide) in PC3-AR cells
T3 construct: expressed in transfected cells
T3 sequence (P10275 1-920): T1 sequence (P10275 1-920)
Method: As LNCaP and C4-2 cells express the T877A mutant AR, we next examined PC3-AR cells expressing wildtype AR. As observed in C4-2 cells, A89 caused a decrease in AR protein levels (FIG. 10d). To further validate that this was due to increased AR protein degradation, we pretreated these cells with A89 for 2 hours and then blocked new protein synthesis with cycloheximide (CHX). […] We finally examined VCaP cells.

[2] = target: T4, AR ΔH12 (M886X variant AR) (Homo sapiens, UniProt P10275); experiment: Mifepristone-stimulated VP16-NCoRc recruitment reporter assay in COS7 cells, AR ΔH12
T4 construct: expressed in transfected cells; host or cells: COS7
T4 sequence (P10275 1-886 limits assumed): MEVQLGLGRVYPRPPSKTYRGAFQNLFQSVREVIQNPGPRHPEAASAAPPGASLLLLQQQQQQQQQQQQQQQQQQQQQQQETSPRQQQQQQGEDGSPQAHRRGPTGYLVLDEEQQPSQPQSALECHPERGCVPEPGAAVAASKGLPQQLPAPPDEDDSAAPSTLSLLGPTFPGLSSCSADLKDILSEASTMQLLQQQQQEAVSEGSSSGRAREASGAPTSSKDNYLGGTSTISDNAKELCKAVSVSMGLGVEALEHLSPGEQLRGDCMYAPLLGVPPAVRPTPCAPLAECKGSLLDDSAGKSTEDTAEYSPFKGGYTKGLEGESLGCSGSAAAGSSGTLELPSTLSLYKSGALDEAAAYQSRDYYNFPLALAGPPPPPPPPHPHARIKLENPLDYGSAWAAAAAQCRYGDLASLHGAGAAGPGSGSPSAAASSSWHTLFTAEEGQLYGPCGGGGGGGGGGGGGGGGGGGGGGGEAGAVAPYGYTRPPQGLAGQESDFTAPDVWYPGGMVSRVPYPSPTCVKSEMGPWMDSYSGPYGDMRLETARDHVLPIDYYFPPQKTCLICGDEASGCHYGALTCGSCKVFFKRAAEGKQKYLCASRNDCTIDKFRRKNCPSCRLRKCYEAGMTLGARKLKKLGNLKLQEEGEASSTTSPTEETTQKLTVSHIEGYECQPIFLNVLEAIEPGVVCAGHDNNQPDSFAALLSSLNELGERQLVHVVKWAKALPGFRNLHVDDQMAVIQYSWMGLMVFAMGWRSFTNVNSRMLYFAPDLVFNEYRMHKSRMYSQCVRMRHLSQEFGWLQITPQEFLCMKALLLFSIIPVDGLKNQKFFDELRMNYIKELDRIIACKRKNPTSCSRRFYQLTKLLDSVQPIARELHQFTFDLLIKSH
Description: The ERα antagonist fulvestrant (Faslodex) represents a novel class of estrogen receptor downregulators that appear to mediate ERα degradation by specifically repositioning helix 12. To assess the role of helix 12 in chemotype A-mediated AR degradation, we first determined if helix 12 is required for A89 binding. As this helix is required for AR agonist activity, we could not directly measure competitive antagonist activity on a truncated AR lacking helix 12.

AR ΔH12 = target: T5, AR ΔH12 (Homo sapiens, UniProt P10275); experiment: AR expression levels in transiently transfected COS7 cells, AR ΔH12; conditions: 24 hours
T5 construct: expressed in transfected cells; host or cells: COS7
T5 sequence (P10275 1-886 limits assumed): T4 sequence (P10275 1-886 limits assumed)

nuclear AR (AR in VCaP cells; 10 μM, steroid depleted medium): significantly decreased nuclear AR
DHT stimulated PSA expression (AR in VCaP cells; not shown): blocking DHT stimulated PSA expression
time within which AR protein decreased ([1]; A89 10 μM, PC3-AR cells): ≤ 4 h
time within which total AR protein dramatically decreased after cycloheximide (CHX) ([1]; A89 treated PC3-AR cells plus CHX): ≤ 1 h
AR protein levels ([1]; PC3-AR cells expressing wildtype AR): decrease
AR protein levels after cycloheximide ([1]; PC3-AR cells pretreated with A89 for 2 hours, then 1 hour CHX, versus CHX alone): declined markedly
mifepristone-mediated VP16-NCoRc recruitment ([2]; A89 50 μM with Mif 100 nM): suppressed
VP16-NCoRc recruitment (interaction with AR) ([2]; Mif 100 nM, A89 50 μM, 24 hours): did not stimulate
AR ΔH12 protein levels (AR ΔH12): not clearly decreased
SMILES: CCOc1cc(F)c(S(=O)(=O)NCc2ccc3c(c2)OCO3)cc1F [Compound A89, N-(1,3-benzodioxol-5-ylmethyl)-4-ethoxy-2,5-difluorobenzenesulfonamide]
potency in antagonizing AR activity in luciferase reporter assays (wildtype AR): increased potency; also recorded: relatively higher potency
basal level PSA expression (AR in VCaP cells; 10 μM, steroid depleted medium): further decreasing basal level PSA expression
